ChEMBL document CHEMBL3045260, “Synthesis, anti-microbial evaluation, and QSAR studies of 4-amino-3-hydroxy-naphthalene-1-sulfonic acid derivatives” (2012)
Values after ≈ are worked out from the molar mass of the structure shown.

Experiments:
Format in all cases: functional
Staphylococcus aureus [1] = experiment: Antibacterial activity against Staphylococcus aureus MTCC 2901 after 24 hr by tube dilution method
Bacillus subtilis [2] = experiment: Ratio of MBC to MIC for Bacillus subtilis MTCC 2063
Aspergillus niger [3] = experiment: Antifungal activity against Aspergillus niger MTCC 8189 after 7 days by tube dilution method
Aspergillus niger [4] = experiment: Fungicidal activity against Aspergillus niger MTCC 8189
Escherichia coli [5] = experiment: Ratio of MBC to MIC for Escherichia coli MTCC 1652
Staphylococcus aureus [6] = experiment: Ratio of MBC to MIC for Staphylococcus aureus MTCC 2901
Escherichia coli [7] = experiment: Antibacterial activity against Escherichia coli MTCC 1652 after 24 hr by tube dilution method
Candida albicans [8] = experiment: Fungicidal activity against Candida albicans MTCC 227
Bacillus subtilis [9] = experiment: Antibacterial activity against Bacillus subtilis MTCC 2063 after 24 hr by tube dilution method
Staphylococcus aureus [10] = experiment: Bactericidal activity against Staphylococcus aureus MTCC 2901
Escherichia coli [11] = experiment: Bactericidal activity against Escherichia coli MTCC 1652
Candida albicans [12] = experiment: Ratio of MFC to MIC for Candida albicans MTCC 227
Candida albicans [13] = experiment: Antifungal activity against Candida albicans MTCC 227 after 48 hr by tube dilution method
Aspergillus niger [14] = experiment: Ratio of MFC to MIC for Aspergillus niger MTCC 8189
Bacillus subtilis [15] = experiment: Bactericidal activity against Bacillus subtilis MTCC 2063

SMILES | -logMIC (Staphylococcus aureus [1]) | Ratio (Bacillus subtilis [2]) | -logMIC (Aspergillus niger [3]) | MFC (Aspergillus niger [4]) [µM] | Ratio (Escherichia coli [5]) | Ratio (Staphylococcus aureus [6]) | -logMIC (Escherichia coli [7]) | MFC (Candida albicans [8]) [µM] | -logMIC (Bacillus subtilis [9]) | MBC (Staphylococcus aureus [10]) [µM] | MBC (Escherichia coli [11]) [µM] | Ratio (Candida albicans [12]) | -logMIC (Candida albicans [13]) | Ratio (Aspergillus niger [14]) | MBC (Bacillus subtilis [15]) [µM]
O=S(=O)(O)c1cc(O)c(/N=C/c2ccccc2)c2ccccc12 | 1.12 | 3 | 1.42 | > 130 | 3 | 3 | 1.42 | > 130 | 1.42 | > 130 | > 130 | 3 | 1.42 | 3 | > 130
COc1ccc(/C=N/c2c(O)cc(S(=O)(=O)O)c3ccccc23)cc1OC | 1.19 | 3 | 1.49 | > 150 | 3 | 3 | 1.49 | > 150 | 1.49 | > 150 | > 150 | 3 | 1.49 | 3 | > 150
COc1cc(/C=N/c2c(O)cc(S(=O)(=O)O)c3ccccc23)ccc1O | 1.17 | 3 | 1.48 | 160 (≈ 59.7 µg/mL) | 3 | 3 | 1.48 | > 160 | 1.48 | 160 (≈ 59.7 µg/mL) | > 160 | 3 | 1.48 | 3 | > 160
O=Cc1ccc(/C=N/c2c(O)cc(S(=O)(=O)O)c3ccccc23)cc1 | 1.15 | 3 | 1.45 | 140 (≈ 49.8 µg/mL) | 3 | 3 | 1.45 | > 140 | 1.45 | 140 (≈ 49.8 µg/mL) | > 140 | 3 | 1.45 | 3 | > 140
O=S(=O)(O)c1cc(O)c(/N=C/c2ccc(Cl)cc2)c2ccccc12 | 1.16 | 3 | 1.16 | > 140 | 3 | 3 | 1.16 | > 140 | 1.16 | > 140 | > 140 | 3 | 1.16 | 3 | > 140
O=S(=O)(O)c1cc(O)c(/N=C/C=C/c2ccccc2)c2ccccc12 | 1.15 | 3 | 1.45 | 140 (≈ 49.5 µg/mL) | 3 | 3 | 1.45 | > 140 | 1.45 | > 140 | > 140 | 3 | 1.45 | 3 | > 140
CCOc1cc(/C=N/c2c(O)cc(S(=O)(=O)O)c3ccccc23)ccc1O | 1.19 | 3 | 1.49 | 30 (≈ 11.6 µg/mL) | 3 | 3 | 1.49 | > 130 | 1.49 | 130 (≈ 50.4 µg/mL) | > 130 | 3 | 1.49 | 3 | > 130
O=S(=O)(O)c1cc(O)c(/N=C/c2cccc(Cl)c2)c2ccccc12 | 1.16 | 3 | 1.46 | > 140 | 3 | 3 | 1.46 | > 140 | 1.46 | 140 (≈ 50.7 µg/mL) | > 140 | 3 | 1.46 | 3 | > 140
O=S(=O)(O)c1cc(O)c(/N=C/c2ccc(Cl)cc2Cl)c2ccccc12 | 1.2 | 3 | 1.5 | > 140 | 3 | 3 | 1.5 | > 140 | 1.5 | > 140 | > 140 | 3 | 1.5 | 3 | > 140
O=[N+]([O-])c1cccc(/C=N/c2c(O)cc(S(=O)(=O)O)c3ccccc23)c1 | 1.17 | 3 | 1.47 | > 140 | 3 | 3 | 1.47 | > 140 | 1.47 | > 140 | > 140 | 3 | 1.47 | 3 | > 140
